According to patent publication US8071629B2, “2-pyridinylcycloalkylcarboxamide derivatives as fungicides” (Bayer Cropscience AG, priority 2005, dated 2011):

Test system: Sphaerotheca fuliginea
Assay: In vivo test on Sphaerotheca fuliginea (powdery mildew)
Settings: gherkin plants, preventive spray 24 h before contamination, dose 600 g/ha, grading 13 days after contamination vs control plants
Experimental: The active ingredients tested are prepared by homogenization in a mixture of DMSO (dimethylsulfoxide)/acetone/tween/water. This suspension is then diluted with water to obtain the desired active material concentration.
Gherkin plants (Vert petit de Paris variety) in starter cups, sown on a 50/50 peat soil-pozzolana substrate and grown at 20° C./23° C., are treated at cotyledons stage by spraying with the aqueous suspension described above. Plants, used as controls, are treated with an aqueous solution not containing the active material.
After 24 hours, the plants are contaminated by spraying them with an aqueous suspension of Sphaerotheca fuliginea spores (100 000 spores per ml). The spores are collected from a contaminated plants. The contaminated gerkhin plants are incubated at about 20° C./25° C. and at 60/70% relative humidity.
Grading (% of efficacy) is carried out 13 days after the contamination, in comparison with the control plants.

`Cn1cc(C(=O)N[C@@H]2CCCC[C@@H]2c2ncc(Cl)cc2Cl)c(C(F)F)n1` (relative stereo) [Compound A-2, N-{2-[3,5-dichloro-2-pyridinyl]cis-cyclohexyl}1-methyl-3-(difluoromethyl)-1H-pyrazole-4-carboxamide] was tested, and the “protection, % of efficacy (good, at least 70%)” value was “at least 70%”.
